According to ChEMBL document CHEMBL6153138, “Discovery of Novel Aromatic Urea-Imidazole Salt Derivatives for Cancer Therapy via Targeting ERK1/2” (J Med Chem, 2025):

What was measured:
4T1 = experiment: Antiproliferative activity against mouse 4T1 cells incubated for 48 hrs by CCK-8 method; type: functional, cell-based; conditions: 4T1, 48 h
HCC1937 = experiment: Antiproliferative activity against human HCC1937 cells incubated for 48 hrs by CCK-8 method; type: functional, cell-based; conditions: HCC1937, 48 h
[1] = molecular target: Mitogen-activated protein kinase 1 (Homo sapiens, UniProt P28482); experiment: Inhibition of ERK2 (unknown origin) incubated for 60 mins by luminescence based ADP-Glo kinase assay
Sequence of Mitogen-activated protein kinase 1 (P28482 whole entry): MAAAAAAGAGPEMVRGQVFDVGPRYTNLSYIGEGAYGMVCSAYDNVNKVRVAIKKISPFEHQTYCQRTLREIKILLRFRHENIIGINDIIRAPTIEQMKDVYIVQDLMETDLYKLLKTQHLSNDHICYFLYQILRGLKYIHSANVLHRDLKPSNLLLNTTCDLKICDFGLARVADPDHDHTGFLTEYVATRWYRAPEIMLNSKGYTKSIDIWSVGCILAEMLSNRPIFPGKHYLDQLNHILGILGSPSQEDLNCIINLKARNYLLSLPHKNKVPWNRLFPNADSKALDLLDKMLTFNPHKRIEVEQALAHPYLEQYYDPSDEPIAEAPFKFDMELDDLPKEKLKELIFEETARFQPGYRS

MCF-10A = experiment: Antiproliferative activity against human MCF-10A cells incubated for 48 hrs by CCK-8 method; type: functional, cell-based
MDA-MB-468 = experiment: Antiproliferative activity against human MDA-MB-468 cells incubated for 48 hrs by CCK-8 method; type: functional, cell-based; conditions: MDA-MB-468, 48 h
MCF7 = experiment: Antiproliferative activity against human MCF7 cells incubated for 48 hrs by CCK-8 method; type: functional, cell-based; conditions: MCF7, 48 h

IC50 (4T1) [µM] | IC50 (HCC1937) [µM] | IC50 [1] [µM] | IC50 (MDA-MB-468) [µM] | IC50 (MCF7) [µM] | SMILES | IC50 (MCF-10A) [µM]
5.8 | 1.49 | 0.315 | 2.24 | 2.99 | Cc1ccc(C[n+]2cn(C[C@H](Cc3ccccc3)NC(=O)Nc3cc(C(F)(F)F)cc(C(F)(F)F)c3)c3ccccc32)cc1 | > 10
4.63 | 1.54 | 0.198 | 2.15 | 1.7 | O=C(Nc1cc(C(F)(F)F)cc(C(F)(F)F)c1)N[C@@H](Cc1ccccc1)Cn1c[n+](Cc2ccc(Cl)cc2Cl)c2ccccc21 | > 10
6.78 | 2.05 | 0.193 | 2.62 | 3.25 | O=C(Nc1cc(C(F)(F)F)cc(C(F)(F)F)c1)N[C@@H](Cc1ccccc1)Cn1c[n+](Cc2cc(Cl)ccc2Cl)c2ccccc21 | > 10
5.63 | 2.41 | 0.237 | 2.44 | 1.53 | O=C(Nc1cc(C(F)(F)F)cc(C(F)(F)F)c1)N[C@@H](Cc1ccccc1)Cn1c[n+](C/C=C/c2ccccc2)c2ccccc21 | > 10
4.59 | 4.53 | 0.319 | 1.81 | 1.91 | O=C(Nc1cc(C(F)(F)F)cc(C(F)(F)F)c1)N[C@@H](Cc1ccccc1)Cn1c[n+](Cc2ccc(Cl)cc2)c2ccccc21 | 9.78
7.2 | 1.71 | 0.248 | 3.02 | 2.42 | O=C(Nc1ccc(Cl)cc1)N[C@@H](Cc1ccccc1)Cn1c[n+](Cc2ccc3ccccc3c2)c2ccccc21 | > 10
> 10 | > 10 | > 10 | > 10 | > 10 | CC[n+]1cn(C[C@H](Cc2ccccc2)NC(=O)Nc2cc(C(F)(F)F)cc(C(F)(F)F)c2)c2ccccc21 | > 10
5.33 | 3.17 | 0.133 | 1.71 | 2.43 | O=C(Nc1cc(C(F)(F)F)cc(C(F)(F)F)c1)N[C@@H](Cc1ccccc1)Cn1c[n+](Cc2cccc(F)c2)c2ccccc21 | 9.32
4.83 | 2.75 | 0.123 | 1.91 | 2.77 | Cc1ccccc1C[n+]1cn(C[C@H](Cc2ccccc2)NC(=O)Nc2cc(C(F)(F)F)cc(C(F)(F)F)c2)c2ccccc21 | > 10
6.78 | 3.72 | 0.275 | 2.36 | 1.7 | Cc1cccc(C[n+]2cn(C[C@H](Cc3ccccc3)NC(=O)Nc3cc(C(F)(F)F)cc(C(F)(F)F)c3)c3ccccc32)c1 | > 10
6.37 | 6.56 | 0.277 | 3.05 | 2.78 | O=C(Nc1ccc(Br)cc1)N[C@@H](Cc1ccccc1)Cn1c[n+](Cc2ccc3ccccc3c2)c2ccccc21 | > 10
5.53 | 2.15 | 0.195 | 3.45 | 3.15 | O=C(Nc1cc(C(F)(F)F)cc(C(F)(F)F)c1)N[C@@H](Cc1ccccc1)Cn1c[n+](Cc2c(Cl)cccc2Cl)c2ccccc21 | > 10
3.51 | 3 | 0.236 | 1.62 | 1.94 | O=C(Nc1cc(C(F)(F)F)cc(C(F)(F)F)c1)N[C@@H](Cc1ccccc1)Cn1c[n+](Cc2ccccc2Br)c2ccccc21 | 9.25
9.67 | 4.2 | 0.294 | 3.22 | 2.84 | O=C(Nc1cc(C(F)(F)F)cc(C(F)(F)F)c1)N[C@@H](Cc1ccccc1)Cn1c[n+](Cc2ccc(F)cc2)c2ccccc21 | > 10
> 10 | 2.55 | 0.244 | 1.29 | 1.59 | O=C(Nc1ccc(Cl)c(C(F)(F)F)c1)N[C@@H](Cc1ccccc1)Cn1c[n+](Cc2ccc3ccccc3c2)c2ccccc21 | > 10
5.29 | 1.13 | 0.37 | 1.81 | 1.79 | O=C(Nc1cc(C(F)(F)F)cc(C(F)(F)F)c1)N[C@@H](Cc1ccccc1)Cn1c[n+](Cc2ccc3cccnc3c2)c2ccccc21 | 8.22
7.82 | 5.98 | 0.327 | 3.25 | 2.7 | Cc1cc(C)cc(NC(=O)N[C@@H](Cc2ccccc2)Cn2c[n+](Cc3ccc4ccccc4c3)c3ccccc32)c1 | > 10
7.03 | 3.48 | 0.185 | 2.34 | 1.86 | O=C(Nc1cc(C(F)(F)F)cc(C(F)(F)F)c1)N[C@@H](Cc1ccccc1)Cn1c[n+](Cc2cccc(C(F)(F)F)c2)c2ccccc21 | > 10

IC50 (4T1) [µM] | IC50 (HCC1937) [µM] | IC50 [1] [µM] | IC50 (MDA-MB-468) [µM] | IC50 (MCF7) [µM] | SMILES | IC50 (MCF-10A) [µM]
2.31 | 1.69 | 0.17 | 1.58 | 1.8 | O=C(Nc1cc(C(F)(F)F)cc(C(F)(F)F)c1)N[C@@H](Cc1ccccc1)Cn1c[n+](Cc2cccc(Br)c2)c2ccccc21 | 8.96
3.54 | 3.68 | 0.247 | 1.57 | 1.32 | COc1cccc(C[n+]2cn(C[C@H](Cc3ccccc3)NC(=O)Nc3cc(C(F)(F)F)cc(C(F)(F)F)c3)c3ccccc32)c1 | > 10
7.41 | 5.6 | 0.414 | 3.64 | 3.84 | N#Cc1ccccc1C[n+]1cn(C[C@H](Cc2ccccc2)NC(=O)Nc2cc(C(F)(F)F)cc(C(F)(F)F)c2)c2ccccc21 | > 10
4.97 | 2.96 | 0.252 | 1.88 | 1.72 | O=C(Nc1cc(C(F)(F)F)cc(C(F)(F)F)c1)N[C@@H](Cc1ccccc1)Cn1c[n+](Cc2ccccc2C(F)(F)F)c2ccccc21 | 7.68
3.88 | 1.87 | 0.235 | 2.06 | 1.99 | O=C(Nc1cc(C(F)(F)F)cc(C(F)(F)F)c1)N[C@@H](Cc1ccccc1)Cn1c[n+](Cc2ccccc2Cl)c2ccccc21 | 9.18
6.77 | 3.37 | 0.215 | 2.45 | 1.55 | O=C(Nc1ccc(Cl)c(Cl)c1)N[C@@H](Cc1ccccc1)Cn1c[n+](Cc2ccc3ccccc3c2)c2ccccc21 | 9.72
8.44 | 3.2 | 0.394 | 2.8 | 1.98 | O=C(Nc1ccc(F)cc1)N[C@@H](Cc1ccccc1)Cn1c[n+](Cc2ccc3ccccc3c2)c2ccccc21 | 8.75
3.68 | 3.4 | 0.166 | 2.12 | 2.34 | O=C(Nc1cc(C(F)(F)F)cc(C(F)(F)F)c1)N[C@@H](Cc1ccccc1)Cn1c[n+](Cc2cccc(Cl)c2)c2ccccc21 | > 10
> 10 | 3.82 | 0.392 | 2.66 | 5.03 | N#Cc1ccc(C[n+]2cn(C[C@H](Cc3ccccc3)NC(=O)Nc3cc(C(F)(F)F)cc(C(F)(F)F)c3)c3ccccc32)cc1 | > 10
5.63 | 2.68 | 0.223 | 2.5 | 1.61 | O=C(Nc1cc(C(F)(F)F)cc(C(F)(F)F)c1)N[C@@H](Cc1ccccc1)Cn1c[n+](Cc2ccc(C(F)(F)F)cc2)c2ccccc21 | 8.12
3.72 | 2.98 | 0.217 | 2.08 | 1.07 | O=C(Nc1ccc(C(F)(F)F)cc1)N[C@@H](Cc1ccccc1)Cn1c[n+](Cc2ccc3ccccc3c2)c2ccccc21 | > 10
> 10 | > 10 | > 10 | > 10 | > 10 | C=CC[n+]1cn(C[C@H](Cc2ccccc2)NC(=O)Nc2cc(C(F)(F)F)cc(C(F)(F)F)c2)c2ccccc21 | > 10
6.89 | 3.18 | 0.28 | 1.64 | 3.2 | O=C(Nc1cc(C(F)(F)F)cc(C(F)(F)F)c1)N[C@@H](Cc1ccccc1)Cn1c[n+](Cc2cccc(OCc3ccccc3)c2)c2ccccc21 | > 10
6.62 | 3.62 | 0.399 | 3.69 | 2.52 | Cc1ccc(NC(=O)N[C@@H](Cc2ccccc2)Cn2c[n+](Cc3ccc4ccccc4c3)c3ccccc32)cc1 | > 10
6.77 | 1.82 | 0.338 | 2.22 | 2.19 | O=C(Nc1cc(C(F)(F)F)cc(C(F)(F)F)c1)N[C@@H](Cc1ccccc1)Cn1c[n+](Cc2ccc(Br)cc2)c2ccccc21 | > 10
3.13 | 1.77 | 0.217 | 1.82 | 2.09 | O=C(Nc1cc(C(F)(F)F)cc(C(F)(F)F)c1)N[C@@H](Cc1ccccc1)Cn1c[n+](Cc2ccccc2F)c2ccccc21 | 8.38
> 10 | 5.96 | 0.335 | 5.29 | 3.36 | N#Cc1cccc(C[n+]2cn(C[C@H](Cc3ccccc3)NC(=O)Nc3cc(C(F)(F)F)cc(C(F)(F)F)c3)c3ccccc32)c1 | > 10
